Data on one compound can be found in patent publication US11534423B2, “Methods and compositions for improving exercise endurance, performance, or tolerance” (Washington University, priority 2019, dated 2022).

In test [1] the test system is Wild-type mice. Briefly: acute exercise test to exhaustion after intraperitoneal injection. In kind it is in vivo. As to conditions: PF-429242 or vehicle, N=3, FIG. 14. The procedure: Exercise endurance: Mice will undergo a single bout of a graded exercise test to exhaustion using a 4-lane treadmill on a 0% incline, with an electric grid at the back of each treadmill. Three days before the endurance test, mice will have 3 days of acclimation at 10 m/min at 0% incline for 5 min. The test will involve a 5 min acclimation period on the treadmill (turned off), followed by: 5 m/min for 5 min; 10 m/min for 5 min; 15 m/min for 10 min; 25 m/min for 10 min; and finally, 30 m/min until exhaustion is reached. Exhaustion is defined as the inability of the mouse to resume running within 10 s after direct contact on the electric grid and inability to right itself when placed on its back.
Wild-type mice were treated with PF-429242 or vehicle via intraperitoneal injection, and subjected to an acute exercise test to exhaustion (N=3).

For test [2], the target named is T1, S1P (Mus musculus, UniProt Q9WTZ2).
T1 construct: from tissue; host or cells: mouse liver (in vivo, i.p. dosing; earlier mouse studies reported elsewhere)
T1 sequence (Q9WTZ2 187-1052): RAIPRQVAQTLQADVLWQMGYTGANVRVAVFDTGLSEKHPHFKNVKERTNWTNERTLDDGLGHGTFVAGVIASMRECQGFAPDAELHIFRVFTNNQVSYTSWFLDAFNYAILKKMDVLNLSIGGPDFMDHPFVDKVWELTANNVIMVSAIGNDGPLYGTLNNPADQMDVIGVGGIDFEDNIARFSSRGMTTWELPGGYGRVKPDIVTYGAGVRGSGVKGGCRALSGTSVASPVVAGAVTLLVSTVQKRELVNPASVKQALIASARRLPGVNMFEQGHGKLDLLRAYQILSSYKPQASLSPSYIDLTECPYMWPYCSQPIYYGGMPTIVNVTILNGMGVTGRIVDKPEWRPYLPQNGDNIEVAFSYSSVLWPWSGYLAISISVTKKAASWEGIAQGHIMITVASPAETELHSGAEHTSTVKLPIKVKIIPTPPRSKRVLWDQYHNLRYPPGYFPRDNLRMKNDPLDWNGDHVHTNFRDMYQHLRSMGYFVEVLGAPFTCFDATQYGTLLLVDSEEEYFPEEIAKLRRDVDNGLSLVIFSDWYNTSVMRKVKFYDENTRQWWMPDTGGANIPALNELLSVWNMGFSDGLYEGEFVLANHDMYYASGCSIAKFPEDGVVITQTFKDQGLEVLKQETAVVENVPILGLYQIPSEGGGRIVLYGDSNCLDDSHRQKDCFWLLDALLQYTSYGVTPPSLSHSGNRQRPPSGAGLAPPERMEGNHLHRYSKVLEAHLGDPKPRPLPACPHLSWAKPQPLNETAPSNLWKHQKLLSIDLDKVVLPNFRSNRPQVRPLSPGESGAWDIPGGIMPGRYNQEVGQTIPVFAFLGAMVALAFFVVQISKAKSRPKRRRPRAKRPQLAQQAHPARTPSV
As to conditions: 30 mg/kg i.p. injection every 6 hrs for 24 hr; cited from earlier work.

Take `CCN(CC)Cc1ccc(C(=O)N(CCc2ccccc2OC)[C@@H]2CCNC2)cc1` [PF-429242]: in test [1], the exercise tolerance entry is given as “enhanced exercise tolerance”. For the same compound, in test [2], the “S1P inhibition in mouse liver” value is on record as “effectively inhibits S1P”.
